Source: US12419852B2, “Method for treating lysosomal storage disease” (Exerkine Corporation, priority 2018, dated 2025)

Experiments:
[1] = Pompe disease, 2 weeks after the infusion; cited from earlier work
[2] = test system: GAA knockout mice; assay: Forelimb grip strength in GAA knockout mice (Pompe disease model); type: in vivo; conditions: change over the 8 week period, FIG. 1A
Description: (§1) To determine if the ketogenic agent and enhanced ketogenic composition could improve autophagic activity, muscle function and mitochondrial capacity in mice having a lysosomal storage disease, mice lacking the acid alpha glucosidase (GAA) protein (an established mouse model of Pompe disease) were administered the ketogenic agent, the enhanced ketogenic composition or one of several control diets for a period of 8 weeks.
(§2) Breeding of GAA mice. Four GAA heterozygous breeding pairs (HET; GAA−/+; 6neo/6+) were obtained from Jackson Laboratories (Maine, USA) to generate homozygous GAA knock-outs (GAA; GAA−/−; 6neo/6neo). Mice were housed at McMaster University's Central Animal Facility in standard cages in 12-h light/dark cycles with ad libitum access to water and their respective diets. […]
(§3) Grip strength, motor coordination, and balance were evaluated prior to the introduction of the experimental diets. Motor coordination and balance were evaluated using a rotarod apparatus (Harvard Apparatus, MA), while forelimb grip strength was evaluated using a metal gripping bar attached to a DFIS-10 Chatillon digital force gage. Upon completion of the baseline testing, all groups were administered their respective experimental diets for a period of 8 weeks, when grip strength, motor coordination, and balance were re-evaluated as endpoint measures. […]

[3] = test system: GAA knockout mice; assay: Rotarod performance (motor coordination and balance) in GAA knockout mice; type: in vivo; conditions: change over 8 weeks, FIG. 1B
Description: as §1, §2, §3

[4] = test system: autophagic buildup in skeletal muscle of GAA knockout mice; assay: Autophagic buildup scored on electron micrographs of skeletal muscle; type: in vivo; conditions: skeletal muscle electron micrographs after 8 weeks; 0=no buildup to 3=severe, 7 micrographs; FIG. 2A
Description: (§4) Experimental groups All mice were fed standard rodent chow (chow diet; Harlan Teklad 8640 22/5), as a base diet with the exception of the group receiving a conventional […] diet (% kcal of SRT diet being 93.2% fat, 6.4% protein and 0.4% carbohydrates; Envigo, TD.07797). […]
(§5) Grip strength, motor coordination, and balance were evaluated prior to the introduction of the experimental diets. Motor coordination and balance were evaluated using a rotarod apparatus (Harvard Apparatus, MA), while forelimb grip strength was evaluated using a metal gripping bar attached to a DFIS-10 Chatillon digital force gage. Upon completion of the baseline testing, all groups were administered their respective experimental diets for a period of 8 weeks, when grip strength, motor coordination, and balance were re-evaluated as endpoint measures. […] The proteins p62, ubiquitin and mitochondrial complexes 1-5 were evaluated in quadriceps muscle using the following antibodies in 5% milk: p62 (Cell Signalling, Cat. #51145), ubiquitin (Enzo Life Sciences, Cat. #UG95100100) and Total OXPHOS Rodent WB Antibody Cocktail (Abcam, Cat. #ab110413). Autophagic buildup was determined using electron micrographs generated by the McMaster Electron Microscopy Facility. […]

[5] = test system: p62 protein; assay: Western blotting for p62 in quadriceps muscle; type: in vivo, mice; conditions: western blot, after 8 weeks, FIG. 2B
Description: as §4, §5

[6] = test system: Complex IV enzyme activity; assay: Complex IV (COX IV) enzymatic activity in quadriceps muscle; type: in vivo, mice; conditions: skeletal muscle, after 8 weeks
Text: as §4
To measure COX IV enzymatic activity, quadriceps muscle was homogenized in Lysing Matrix D tubes (MP Biomedicals, Solon, OH, USA) using the FastPrep-24 Tissue and Cell Homogenizer (MP Biomedicals, Solon, OH, USA) for 5×5-second cycles at a speed of 4.0 m/s with samples placed on ice for 5 minutes between cycles. […] The rate of oxidation of reduced cytochrome c was measured at 550 nm for 3 min at 37° C.

[7] = test system: mitochondrial complexes 1-5; assay: Western blotting for mitochondrial complexes 1-5 protein in quadriceps muscle; type: in vivo, mice; conditions: western blot, range over the five complexes, FIGS. 3B-F
Description: as §4, §5

For “recombinant GAA protein: Infused recombinant acid alpha-glucosidase (GAA) protein used as enzyme replacement therapy in Pompe disease”, the “fraction of infused protein retained within skeletal muscle” value [1] is listed as 1-3%.
In the case of `CC(O)CCO` (stereo not shown) [ERT+1,3 BD, 1,3 butanediol], the “decline in forelimb grip strength” value [2] is reported as “relatively unchanged”, the “improvement in duration of time able to balance on the rotarod apparatus” value [3] is reported as 46% and the “autophagic buildup score (per mouse total score out of 21)” value [4] is reported as 12/21. For the same compound, the “p62 protein expression lower than GAA CON group” value [5] was 59%, the “ratio of mean complex IV enzyme activity to mean complex IV protein content, lower compared to WT CON” value [6] was 41% and the “protein levels of mitochondrial complexes 1-5 higher compared to WT CON” value [7] was 219-647%.
For “ERT: Enzyme replacement therapy: bi-weekly intravenous injections of 40 mg/kg recombinant GAA enzyme (Myozyme; Genzyme)”, the “decline in forelimb grip strength” value [2] was 20%, the “improvement in duration of time able to balance on the rotarod apparatus” value [3] was “little or no change” and the “autophagic buildup score (per mouse total score out of 21)” value [4] was 15/21. The “p62 protein expression lower than GAA CON group” value [5] was 23%, the “ratio of mean complex IV enzyme activity to mean complex IV protein content, lower compared to WT CON” value [6] was 43% and the “protein levels of mitochondrial complexes 1-5 higher compared to WT CON” value [7] was 103-250%.
